According to patent US8557812B2, “Small molecule inhibitors of anti-apoptotic BCL-2 family members and the uses thereof” (The Regents of the University of Michigan, priority 2004, dated 2013):

Target: human Bcl-xL (Homo sapiens, UniProt Q07817)
Assay: Fluorescence polarization in vitro Bcl-xL binding assay
Conditions: displacement of Flu-Bak peptide
From the text: For determination of the binding affinity to Bcl-xL protein a human Bcl-xL recombinant His-tagged protein without the C-terminus hydrophobic tail and the Bak-16mer BH3 peptide labeled with 6-carboxyfluorescein succinimidyl ester (FAM) were used.

Sequence of human Bcl-xL (Q07817 1-209 limits assumed): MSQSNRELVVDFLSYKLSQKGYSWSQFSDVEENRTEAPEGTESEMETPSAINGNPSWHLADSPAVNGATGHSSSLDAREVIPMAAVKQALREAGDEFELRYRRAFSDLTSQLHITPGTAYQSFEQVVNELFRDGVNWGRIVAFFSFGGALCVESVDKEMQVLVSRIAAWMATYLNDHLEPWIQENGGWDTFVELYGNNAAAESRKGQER

IC50 [µM] | SMILES
> 1 | Oc1ccc(Cc2ccc(Oc3ccccc3)cc2)c(O)c1O [TM-157]
> 1 | CC(C)c1cc(Cc2ccc(Oc3ccccc3)cc2)c(O)c(O)c1O [TM-159]
> 1 | Oc1c(CCc2ccccc2)cc(Cc2ccc(Oc3ccccc3)cc2)c(O)c1O [TM-162]
> 1 | Oc1c(CCCc2ccccc2)cc(Cc2ccc(Oc3ccccc3)cc2)c(O)c1O [TM-163]

Target: Bcl-2 (Homo sapiens, UniProt P10415)
Assay: Fluorescence polarization in vitro Bcl-2 binding assay
Conditions: not given
Procedure: Bcl-2 used in this assay is a recombinant His-fused soluble protein. […] Inc., Research Triangle Park, N.C.). […] The unlabeled Bid peptide is used as the positive control. The Ki values were calculated using our developed equation for FP assay (Nikolovska-Coleska et al., Anal. Biochem., 2004, in press). The program for calculating a Ki value is available free of charge via the Internet at http://sw16.im.med.umich.edu/software/calc_ki/.

Sequence of Bcl-2 (P10415 92-205 limits assumed): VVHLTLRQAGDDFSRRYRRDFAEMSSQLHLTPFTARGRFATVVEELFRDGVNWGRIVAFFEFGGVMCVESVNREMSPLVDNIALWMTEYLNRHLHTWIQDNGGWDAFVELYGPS

IC50 [µM] | SMILES
> 1 | CC(C)(C)c1ccc(-c2cc(Cc3ccccc3)c(O)c(O)c2O)cc1 [TW-3, 5-Benzyl-4′-tert-butyl-biphenyl-2,3,4-triol]
> 1 | CC(C)c1cc(-c2ccc(C(C)(C)C)cc2)c(O)c(O)c1O [TW-4, 4′-tert-Butyl-5-isopropyl-biphenyl-2,3,4-triol]
> 1 | CCCCCCCCCCCc1ccc(-c2cc(Cc3ccccc3C(C)C)c(O)c(O)c2O)cc1 [TW-14, 5-(2-Isopropyl-benzyl)-4′-undecyl-biphenyl-2,3,4-triol]
> 1 | O=C(Nc1cc(S(=O)(=O)c2ccc(Cl)cc2)ccc1Cl)c1cc(Cc2ccccc2)c(O)c(O)c1O [TW-17]
> 1 | O=C(Nc1ccc(Oc2ccccc2)cc1)c1cc(CCc2ccccc2)c(O)c(O)c1O [TW-20, N-(4-phenyloxy-phenyl)-2,3,4-trihydroxy-5-phenethyl-benzamide]
> 1 | CC(C)c1cccc(NC(=O)c2cc(CCc3ccccc3)c(O)c(O)c2O)c1 [TW-24, N-(3-isopropyl-phenyl)-2,3,4-trihydroxy-5-phenethyl-benzamide]
> 1 | CC(C)(C)c1ccc(CNC(=O)c2cc(CCc3ccccc3)c(O)c(O)c2O)cc1 [TW-25, N-(4-tert-Butyl-benzyl)-2,3,4-trihydroxy-5-phenethyl-benzamide]
> 1 | O=C(Nc1ccc(Cl)c(Cl)c1)c1cc(CCc2ccccc2)c(O)c(O)c1O [TW-27]
> 1 | Cc1ccccc1NC(=O)c1cc(CCc2ccccc2)c(O)c(O)c1O [TW-28]
> 1 | CC(C)c1ccccc1Cc1cc(C(=O)Nc2cc(S(=O)(=O)c3ccc(Cl)cc3)ccc2Cl)c(O)c(O)c1O [TW-35, N-[2-Chloro-5-(4-chloro-benzenesulfonyl)-phenyl]-2,3,4-trihydroxy-5-(2-isopropyl-benzyl)-benzamide]
> 1 | CC(C)(C)c1ccc(Cc2cc(C(=O)Nc3ccc(S(=O)(=O)c4ccccc4C(C)(C)C)cc3)c(O)c(O)c2O)cc1 [TW-41, N-[4-(2-tert-Butyl-benzenesulfonyl)-phenyl]-2,3,4-trihydroxy-5-(4-tert-butyl-benzyl)-benzamide]
> 1 | CC(C)CCCc1ccccc1Cc1cc(C(=O)Nc2ccc(S(=O)(=O)c3ccccc3C(C)(C)C)cc2)c(O)c(O)c1O [TW-42, N-[4-(2-tert-Butyl-benzenesulfonyl)-phenyl]-2,3,4-trihydroxy-5-(2-iso-hexyl-benzyl)-benzamide]
≤ 1 | CC(C)CCCc1cc(C(=O)Nc2cc(S(=O)(=O)c3ccc(Cl)cc3)ccc2Cl)c(O)c(O)c1O [TW-47, N-[2-Chloro-5-(4-chloro-benzenesulfonyl)-phenyl]-2,3,4-trihydroxy-5-iso-hexyl-benzamide]
> 1 | CC(C)c1ccccc1Cc1cc(C(=O)Nc2ccccc2)c(O)c(O)c1O [TW-52, N-Phenyl-2,3,4-trihydroxy-5-(2-iso-propyl-benzyl)-benzamide]
> 1 | CC(C)c1ccccc1Cc1cc(C(=O)Nc2ccccc2Cl)c(O)c(O)c1O [TW-53, N-(2-Chloro-phenyl)-2,3,4-trihydroxy-5-(2-iso-propyl-benzyl)-benzamide]
> 1 | CNC(=O)c1cc(Cc2ccccc2C(C)C)c(O)c(O)c1O [TW-55, N-Methyl-2,3,4-trihydroxy-5-(2-isopropyl-benzyl)-benzamide]
> 1 | O=C(Nc1ccc(S(=O)(=O)c2ccccc2)cc1)c1cc(Cc2ccccc2)c(O)c(O)c1O [TW-56, N-(Benzenesulfonyl-phenyl)-2,3,4-trihydroxy-5-benzyl-benzamide]

The next lines start with the molecule.

SMILES | IC50 [µM]
CN(CCCc1ccccc1)S(=O)(=O)c1cc(C(=O)N2CCc3ccc(S(=O)(=O)NCCc4ccccc4)cc3C2)c(O)c(O)c1O [TM-1206] | ≤ 1
Oc1c(Cc2ccccc2)cc(-c2ccc(CCCCCc3ccccc3)cc2)c(O)c1O [TW-1, 5-Benzyl-4′-(5-phenyl-pentyl)-biphenyl-2,3,4-triol] | > 1
CCCCCCCCCCc1ccc(-c2cc(Cc3ccccc3)c(O)c(O)c2O)cc1 [TW-2, 5-Benzyl-4′-decyl-biphenyl-2,3,4-triol] | > 1
CCCCCCCCCCc1ccc(-c2cc(C(C)C)c(O)c(O)c2O)cc1 [TW-5, 4′-Decyl-5-isopropyl-biphenyl-2,3,4-triol] | > 1
CCCCCCCCCCCc1ccc(-c2cc(CCCc3ccccc3)c(O)c(O)c2O)cc1 [TW-6, 5-(3-Phenyl-propyl)-4′-undecyl-biphenyl-2,3,4-triol] | > 1
CCCCCCCCCCCc1ccc(-c2cc(CCc3ccc(C(C)(C)C)cc3)c(O)c(O)c2O)cc1 [TW-7, 5-[2-(4-tert-Butyl-phenyl)-ethyl]-4′-unedcyl-biphenyl-2,3,4-triol] | > 1
CCCCCCCCCCCc1ccc(-c2cc(Cc3ccc(C(C)(C)C)cc3)c(O)c(O)c2O)cc1 [TW-8, 5-(4-Tertbutyl-benzyl)-4′-undecyl-biphenyl-2,3,4-triol] | > 1
CCCCCCCCCCCc1ccc(-c2cc(Cc3ccc(C(C)C)cc3)c(O)c(O)c2O)cc1 [TW-9, 5-(4-Isopropyl-benzyl)-4′-undecyl-biphenyl-2,3,4-triol] | > 1
Oc1c(Cc2ccccc2)cc(-c2ccc(CCCc3ccccc3)cc2)c(O)c1O [TW-11, 5-Benzyl-4′-(3-phenyl-propyl)-biphenyl-2,3,4-triol] | > 1
Oc1c(Cc2ccccc2)cc(-c2ccc(Cc3ccccc3)cc2)c(O)c1O [TW-12, 5,4′-Dibenzyl-biphenyl-2,3,4-triol] | > 1
O=C(Nc1cccc(S(=O)(=O)c2ccccc2)c1)c1cc(CCc2ccccc2)c(O)c(O)c1O [TW-21, N-(3-Benzenesulfonyl-phenyl)-2,3,4-trihydroxy-5-phenethyl-benzamide] | > 1
CC(C)(C)c1ccc(CCc2cc(C(=O)Nc3cccc(S(=O)(=O)c4ccccc4)c3)c(O)c(O)c2O)cc1 [TW-22, N-(3-Benzenesulfonyl-phenyl)-5-[2-(4-tert-butyl-phenyl)-ethyl]-2,3,4-trihydroxy-benzamide] | > 1
O=C(Nc1cc(S(=O)(=O)c2ccc(Cl)cc2)ccc1Cl)c1cc(CCc2ccccc2)cc(O)c1O [TW-34, N-[2-Chloro-5-(4-chloro-benzenesulfonyl)-phenyl]-2,3-dihydroxyl-phenethyl-benzamide] | > 1
CC(C)(C)c1ccc(CCc2cc(C(=O)Nc3ccc(S(=O)(=O)c4ccccc4C(C)(C)C)cc3)c(O)c(O)c2O)cc1 [TW-38, N-[(2-tert-Butyl-benzenesulfonyl)-phenyl]-2,3,4-trihydroxy-5-(4-tert-butyl-phenethyl)-benzamide] | ≤ 1
CC(C)(C)c1ccc(Cc2cc(C(=O)Nc3cc(S(=O)(=O)c4ccc(Cl)cc4)ccc3Cl)c(O)c(O)c2O)cc1 [TW-39, N-[2-Chloro-5-(4-chloro-benzenesulfonyl)-phenyl]-2,3,4-trihydroxy-5-(4-tert-butyl-benzyl)-benzamide] | > 1
CCc1cc(C(=O)Nc2cc(S(=O)(=O)c3ccc(Cl)cc3)ccc2Cl)c(O)c(O)c1O [TW-45, N-[2-Chloro-5-(4-chloro-benzenesulfonyl)-phenyl]-2,3,4-trihydroxy-5-ethyl-benzamide] | ≤ 1

SMILES | IC50 [µM]
O=C(Nc1cc(S(=O)(=O)c2ccc(Cl)cc2)ccc1Cl)c1ccc(O)c(O)c1O [TW-46, N-[2-Chloro-5-(4-chloro-benzenesulfonyl)-phenyl]-2,3,4-trihydroxy-benzamide] | ≤ 1
CC(C)(C)c1ccccc1S(=O)(=O)c1ccc(NC(=O)c2cc(S(=O)(=O)NCCCc3ccccc3)cc(O)c2O)cc1 [TW-159] | ≤ 1
CC(C)(C)c1ccccc1S(=O)(=O)c1ccc(NC(=O)c2cc(S(=O)(=O)NCCCCc3ccccc3)cc(O)c2O)cc1 [TW-160] | > 1
CC(C)(C)c1ccccc1S(=O)(=O)c1ccc(NC(=O)c2cc(S(=O)(=O)NCCc3ccccc3)cc(O)c2O)cc1 [TW-161] | > 1
O=C(Nc1ccccc1)c1cc(S(=O)(=O)Nc2ccccc2)cc(O)c1O [TW-162] | > 1
O=C(Nc1ccc(S(=O)(=O)N2CCN(c3ccccc3)CC2)cc1)c1cc(S(=O)(=O)N2CCc3ccccc3C2)cc(O)c1O [TW-163] | > 1
O=C(Nc1ccc(S(=O)(=O)N2CCOCC2)cc1)c1cc(S(=O)(=O)N2CCc3ccccc3C2)cc(O)c1O [TW-164] | ≤ 1
COc1ccc(S(=O)(=O)Nc2ccccc2C(C)C)cc1NC(=O)c1cc(S(=O)(=O)N2CCc3ccccc3C2)cc(O)c1O [TW-165] | ≤ 1
O=C(NCCc1ccccc1)c1ccc(C2=Cc3c(c(O)c(O)c(O)c3-c3ccc(-c4ccccc4)cc3)C2=O)cc1 [TW-166] | ≤ 1
CC(C)(C)c1ccc(CCc2cc(O)c(O)c(C(=O)Nc3ccc(S(=O)(=O)N4CCN(c5ccccc5)CC4)cc3)c2)cc1 [TW-167] | > 1
CC(C)(C)c1ccc(CCc2cc(O)c(O)c(C(=O)Nc3ccc(S(=O)(=O)N4CCN(c5ncccn5)CC4)cc3)c2)cc1 [TW-169] | ≤ 1
CC(C)(C)c1ccc(CCc2cc(O)c(O)c(C(=O)Nc3ccc(S(=O)(=O)N4CCC(Cc5ccccc5)CC4)cc3)c2)cc1 [TW-170] | > 1
O=C1C(c2ccc(C(=O)N3CCC(Cc4ccccc4)CC3)cc2)=Cc2c1c(O)c(O)c(O)c2-c1ccc(-c2ccccc2)cc1 [TW-172] | ≤ 1
O=C(Nc1ccc(S(=O)(=O)N2CCC(Nc3ccccc3-c3ccccc3)CC2)cc1)c1cc(S(=O)(=O)N2CCc3ccccc3C2)cc(O)c1O [TW-173] | > 1
CC(C)(C)c1ccccc1NC1CCN(S(=O)(=O)c2ccc(NC(=O)c3cc(S(=O)(=O)N4CCc5ccccc5C4)cc(O)c3O)cc2)CC1 [TW-174] | > 1
